Data set [1] relates to Rat Ileal Uptake of [14C]-Taurocholate. The data set is described as follows: In vivo assay of rat ileal uptake of [14C]-taurocholate into bile (ileal loop). The following applies: for activity at 500 µM: 0.5 mM; for activity at 100 µM: read-out: % of Control Transport of TC in Rat Ileum @ 0.1 mM; for EC50: rat ileal loop, read-out: TC-uptake Ileal Loop EC(50). How it is done:
In Vivo Assay of Compounds that Inhibit Rat Ileal Uptake of [^14C]-Taurocholate into Bile
(See “Metabolism of 3α,7β-dihydroxy-7α-methyl-5β-cholanoic acid and 3α,7β-dihydroxy-7α-methyl-5β-cholanoic acid in hamsters” in Biochimica et Biophysica Acta 833 (1985) 196-202 by Une et al.)
Male wistar rats (200-300 g) are anesthetized with inactin @100 mg/kg. Bile ducts are cannulated with a 10″ length of PE10 tubing. The small intestine is exposed and laid out on a gauze pad. A canulae (⅛″ luer lock, tapered female adapter) is inserted at 12 cm from the junction of the small intestine and the cecum. A slit is cut at 4 cm from this same junction (utilizing a 8 cm length of ileum). 20 ml of warm Dulbecco's phosphate buffered saline, pH 6.5 (PBS) is used to flush out the intestine segment. The distal opening is cannulated with a 20 cm length of silicone tubing (0.02″ I.D.×0.037″ O.D.). The proximal cannulae is hooked up to a peristaltic pump and the intestine is washed for 20 min with warm PBS at 0.25 ml/min. Temperature of the gut segment is monitored continuously. At the start of the experiment, 2.0 ml of control sample ([^14C]-taurocholate @ 0.05 mi/ml with 5 mM cold taurocholate) is loaded into the gut segment with a 3 ml syringe and bile sample collection is begun. Control sample is infused at a rate of 0.25 ml/min for 21 min. Bile samples fractions are collected every 3 minute for the first 27 minutes of the procedure. After the 21 min of sample infusion, the ileal loop is washed out with 20 ml of warm PBS (using a 30 ml syringe), and then the loop is washed out for 21 min with warm PBS at 0.25 ml/min. A second perfusion is initiated as described above but this with test compound being administered as well (21 min administration followed by 21 min of wash out) and bile sampled every 3 min for the first 27 min. If necessary, a third perfusion is performed as above that typically contains the control sample.

Data set [2] addresses T1, human IBAT (Homo sapiens, UniProt Q12908).
T1 construct: expressed in transfected cells; host or cells: Baby hamster kidney (BHK) cells, clone H14
T1 sequence (Q12908 1-348): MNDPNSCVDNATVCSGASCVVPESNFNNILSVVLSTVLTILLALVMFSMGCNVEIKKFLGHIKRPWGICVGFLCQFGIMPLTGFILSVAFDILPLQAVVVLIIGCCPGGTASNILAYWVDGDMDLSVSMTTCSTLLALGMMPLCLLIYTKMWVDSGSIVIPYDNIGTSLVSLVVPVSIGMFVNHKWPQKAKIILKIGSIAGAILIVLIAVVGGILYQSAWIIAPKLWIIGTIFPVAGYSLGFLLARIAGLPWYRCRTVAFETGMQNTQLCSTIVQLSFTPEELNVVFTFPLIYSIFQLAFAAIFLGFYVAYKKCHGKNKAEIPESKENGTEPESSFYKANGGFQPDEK
The data set is described as follows: In vitro assay of IBAT-mediated uptake of [14C]-taurocholate (TC) in H14 cells. Format: cell-based. A digest of the protocol: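 BHK cells stably expressing human IBAT (H14) were incubated 2 h at 37° C with compound and 3 μM final [14C]-taurocholate in DMEM (4.5 g/L glucose) plus 0.2% fatty acid-free BSA. After cold PBS washes, cell-associated radioactivity was measured by scintillation counting.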

Data set [3] has as its system H14 cells. The data set is described as follows: In vitro assay of uptake of [14C]-alanine. The data set is classed as cell-based, hamster. Conditions: Mesocricetus auratus. The protocol:
Baby hamster kidney cells (BHK) transfected with the cDNA of human IBAT (H14 cells) are seeded at 60,000 cells/well in 96 well Top-Count tissue culture plates for assays run within in 24 hours of seeding, 30,000 cells/well for assays run within 48 hours, and 10,000 cells/well for assays run within 72 hours.
On the day of assay, the cell monolayer is gently washed once with 100 μl assay buffer (Dulbecco's Modified Eagle's medium with 4.5 g/L glucose+0.2% (w/v) fatty acid free bovine serum albumin-(FAF)BSA). To each well 50 μl of a two-fold concentrate of test compound in assay buffer is added along with 50 μl of 6 μM [^14C]-taurocholate in assay buffer (final concentration of 3 μM [^14C]-taurocholate). The cell culture plates are incubated 2 hours at 37° C. prior to gently washing each well twice with 100 μl 4° C. Dulbecco's phosphate-buffered saline (PBS) containing 0.2% (w/v) (FAF)BSA. The wells are then gently washed once with 100 μl 4° C. PBS without (FAF)BSA. To each 200 μl of liquid scintillation counting fluid is added, the plates are heat sealed and shaken for 30 minutes at room temperature prior to measuring the amount of radioactivity in each well on a Packard Top-Count instrument.
In Vitro Assay of Compounds that Inhibit Uptake of [^14C3-Alanine
The alanine uptake assay is performed in an identical fashion to the taurocholate assay, with the exception that labeled alanine is substituted for the labeled taurocholate.

For data set [4], the system named is Rabbit Ileal brush border membranes. Description: [3H]taurocholate uptake in rabbit brush border membrane vesicles (BBMV). Format: biochemical. Conditions: read-out: TC-uptake (BBMV) IC(50). The protocol: [^3H]Taurocholate Uptake in Rabbit Brush Border Membrane Vesicles (BBMV)
Rabbit Ileal brush border membranes were prepared from frozen iheal mucosa by the calcium precipitation method describe by Malathi et al. (Reference: (1979) Biochimica Biophysica Acta, 554, 259). The method for measuring taurocholate was essentially as described by Kramer et al. (Reference: (1992) Biochimica Biophysica Acta, 1111, 93) except the assay volume was 200 μl instead of 100 μl.

Data set [5] has as its target ACAT. Description: Acyl-CoA; cholesterol acyl transferase (ACAT), hamster liver microsomes. The data set is classed as biochemical. Conditions: read-out: ACAT (liver) IC(50). The protocol:
Acyl-CoA; Cholesterol Acyl Transferase (ACAT)
Hamster liver and rat intestinal microsomes were prepared from tissue as described previously (Reference: (1980) J. Biol. Chem. 255, 9098) and used as a source of ACAT enzyme. The assay consisted of a 2.0 ml incubation containing 24 μM Oleoyl-CoA (0.05 μCi) in a 50 mM sodium phosphate, 2 mM DTT ph 7.4 buffer containing 0.25% BSA and 200 μg of microsomal protein. The assay was initiated by the addition of oleoyl-CoA. The reaction went for 5 min at 37° C. and was terminated by the addition of 8.0 ml of chloroform/methanol (2:1). […] The chloroform phase was taken to dryness and then spotted on a silica gel 60 TLC plate and developed in hexane/ethyl ether (9:1). The amount of cholesterol ester formed was determined by measuring the amount of radioactivity incorporated into the cholesterol oleate spot on the TLC plate with a Packard instaimager.
Background: Liver microsomes are a subcellular fraction often used to study metabolism.

[6] abbreviates: Rattus norvegicus, read-out: % of Control Transport of TC in Rat Ileum.
Where [7] appears, read: H14 cells, Table 5, read-out: IC50 uM (In vitro Taurocholate Cell Uptake).
Setting [8] is: Table 6, read-out: TC-uptake (H14 cells) IC(50).

Like-named read-outs stand apart in the source and are kept apart here.

What is called inhibition is the share of the control response that was lost under treatment. The melting point is the temperature of the solid-liquid transition.

For the compound `CCCC[C@]1(CC)CS(=O)(=O)c2ccccc2[C@@H](c2ccccc2)C1=O` (relative stereo) [Example 5b, trans-3-Butyl-3-ethyl-5-phenyl-2,3-dihydro-benzothiepin-(5H) 4-one-1,1-dioxide], in data set [1] (setting [6]), the activity at 500 µM stood at 72.9 ± 5.4%. Also, the IC50 in data set [2] (setting [7]) came out at 40 µM. The compound further displayed an inhibition at 100 µM in data set [3] of 0%.
Take `CCCC[C@@]1(CC)C[C@@H](c2ccccc2)c2ccccc2S(=O)(=O)C1` (relative stereo) [Example 9a, cis-3-Butyl-3-ethyl-5-phenyl-2,3,4,5-tetrahydrobenzothiepine-1,1-dioxide]: the activity at 100 µM in data set [1] (Rattus norvegicus) came out at 53.7%. In data set [2] (setting [7]), the IC50 was found to be 5 µM. The compound also showed an inhibition at 25 µM in data set [3] of 0%.
Take `CCCC[C@]1(CC)CS(=O)(=O)c2ccccc2[C@H](c2ccccc2)[C@@H]1O` [Example 6c, (3α,4α,5α) 3-Butyl-3-ethyl-4-hydroxy-5-phenyl-2,3,4,5-tetrahydrobenzothiepine-1,1-dioxide]: in data set [1] (Rattus norvegicus, 0.4 mM, read-out: % of Control Transport of TC in Rat Ileum), the activity at 400 µM turned out to be 68.8%. Also, the IC50 in data set [2] (setting [7]) worked out at 2 µM. In data set [3], this compound came in with an inhibition at 100 µM of 58.5%.
`CCCC[C@]1(CC)CS(=O)(=O)c2ccccc2[C@@H](c2ccccc2)[C@H]1O` [Example 6d, (3α,4β,5β) 3-Butyl-3-ethyl-4-hydroxy-5-phenyl-2,3,4,5-tetrahydrobenzothiepine-1,1-dioxide]: the activity at 150 µM in data set [1] (Rattus norvegicus, 0.15 mM, read-out: % of Control Transport of TC in Rat Ileum) was found to be 30.2%. Moreover, in data set [1] (setting [6]), the activity at 500 µM was determined as 16.1%. For the same compound, the EC50 in data set [1] amounted to 31000 nM. The IC50 was determined as 0.6 µM in data set [2] (setting [7]), 0.6 µM in data set [2] (setting [8]) and 1500 nM in data set [4]. In data set [3], at 100 µM the inhibition was 77.7%.
In the case of `CCCC[C@]1(CC)CS(=O)(=O)c2cc(OC)ccc2[C@H](c2ccccc2)[C@@H]1O` [Example 26, (3α,4α,5α) 3-Butyl-3-ethyl-4-hydroxy-8-methoxy-5-phenyl-2,3,4,5-tetrahydrobenzothiepine-1,1-dioxide], the activity at 100 µM in data set [1] (Rattus norvegicus) was found to be 87.9%. Besides, the IC50 in data set [2] (setting [7]) stood at 2 µM. The inhibition at 25 µM in data set [3] stood at 31%.
Take `CCCC[C@]1(CC)CS(=O)(=O)c2ccc(NO)cc2[C@@H](c2ccccc2)[C@H]1O` [Example 38, (3α,4β,5β) 3-Butyl-3-ethyl-4-hydroxy-7-hydroxyamino-5-phenyl-2,3,4,5-tetrahydrobenzothiepine-1,1-dioxide]: the activity at 100 µM in data set [1] (Rattus norvegicus) came to 20.6%. In addition, the EC50 in data set [1] came out at 12000 nM. Further, the IC50 in data set [2] (setting [7]) was determined as 0.3 µM; in data set [2] (setting [8]), 0.3 µM; in data set [5], 15000 nM; in data set [4], 2000 nM. This compound came in with an inhibition at 5 µM in data set [3] (5 μM) of 11%.
With `CCCC[C@]1(CC)CS(=O)(=O)c2ccc(OC)cc2[C@@H](c2ccccc2)[C@H]1O` [Example 49, (3α,4β,5β) 3-Butyl-3-ethyl-4-hydroxy-7-methoxy-5-phenyl-2,3,4,5-tetrahydrobenzothiepine-1,1-dioxide], the activity at 100 µM in data set [1] (Rattus norvegicus) was found to be 21.2%. For the same compound, the EC50 in data set [1] was 12000 nM. The IC50 in data set [2] (setting [7]) was determined as 0.15 µM; in data set [2] (setting [8]) it was 0.1 µM; in data set [5], 6000 nM. In data set [3] (200 μM), this compound yielded an inhibition at 200 µM of 21%.
`CC1(C)CS(=O)(=O)c2ccc(N)cc2[C@@H](c2ccccc2)[C@H]1O` [Example 288] gave a melting point of 185 to 186 °C. Further, in data set [3] (@ 6.25 μM, read-out: Alanine Uptake Percent Inhibition @ μM), the inhibition at 6.25 µM amounted to 10%.

The values above are taken from patent US6784201B2, “Benzothiepines having activity as inhibitors of ileal bile acid transport and taurocholate uptake” (G.D. Searle & Company, priority 1994, dated 2004).
